Entries after “also recorded” stand apart in the source; their conditions may differ. Read-outs that look alike come from different tables or passages of the source. Residues, ends and D or L forms follow the SMILES beside them. *: point of attachment. Cbz = O=C(OCc1ccccc1)*
What was measured:
NCI-H929 [1] = experiment: cells
Protocol: For cell survival assays, cells were plated in 96-well culture plates (BD Biosciences, San Jose, Calif.), 100,000 cells/well with 200 μl, of culture media. The effect of the drugs on cell survival was assessed, for example, by measuring 3-(4,5-dimethylthiazol-2-yl)-5-(3-carboxymethoxyphenyl)-2-(4-sulphophenyl)-2H-tetrazolium, inner salt (MTS) (Promega, Madison, Wis.) dye absorbance of viable cells by adding 40 μL of 5 mg/mL MTS to each well for the last 4 hours of drug exposure. Additional wells containing cells only (untreated control) or medium only (background medium control) were used as controls. Absorbance at 490 nm (A490) was measured using a spectrophotometer (Dynatech Laboratories, Chantilly, Va.). Viability was estimated according to the following formula: […]
Briefly, the cellular fraction affected (Fa) was calculated based on an MTS assay after exposing cells to the drugs alone or in combination at a given dose compared to untreated cells, using the formula: Fa=100−% Viable Cells. Fa values were entered into Calcusyn software (Biosoft, Ferguson, Mo. and Cambridge, United Kingdom) to obtain CI values. CI values <1.0 indicated a synergistic effect of the drugs used in combination. For Inhibitory Concentration, or IC, calculations, dose-effect curves for MAL3-101, MG-132, 17-AAG, and their combinations were used to interpolate the median inhibitory concentration that caused 30% (IC30), 50% (IC50), and 70% (IC70) reductions in the % viable cells compared to untreated cells.
Cells (1×10^5) were plated in 96-well microtiter plates (Costar, Cambridge, Mass.) in 100 μL, of growth medium and exposed for indicated periods to various concentrations of compounds or their combinations. Control cells were cultured in DMSO. All studies were performed in triplicate and repeated at least three times independently. Survival was measured by an MTS assay (Promega, Madison, Wis.) as per the manufacturer's directions. The absorbance (A450) ratio of treated to untreated cells, after the subtraction of background absorbance, was multiplied by 100 to obtain percent cell survival. Cell death was measured by trypan blue dye exclusion in identically plated cultures.
DMSO-treated cultures were compared to drug-treated cultures by Student's t tests or by Dunnett's post-hoc test following significant repeated-measures one-way analysis of variance. All tests were two-tailed, and statistical significance was set at P≦0.05. Isobologram analysis was performed to derive combination index (CI) values based upon the Chou-Talalay method using CalcuSyn software (Biosoft, Ferguson, Mo. and Cambridge, United Kingdom) as described in L. Catley, E. Weisberg, T. Kiziltepe, Y. T. Tai, T. Hideshima, P. Neri, P. Tassone, P. Atadja, D. Chauhan, N. C. Munshi, K. C. Anderson, Aggresome induction by proteasome inhibitor Bortezomib and {alpha}-tubulin hyperacetylation by tubulin deacetylase (TDAC) inhibitor LBH589 are synergistic in myeloma cells, Blood (2006), which is incorporated herein by reference.

NCI-H929 [2] = experiment: Annexin V / PI flow cytometry apoptosis assay, NCI-H929; assay type: cell-based, human; conditions: for induction of apoptosis at 18 h: NCI-H929, 18 h, MAL3-101 10 μM, MG-132 0.1 μM, alone or combined
Protocol: Each experiment was repeated at least three times. Every experimental condition was repeated at least in triplicate wells for every experiment. For cell death assays, 10^6 MM cells were exposed to media or drug for the indicated incubation periods, washed with 1× phosphate-buffered saline (PBS), pH 7.4 (Invitrogen) and resuspended in 500 μL, binding buffer (Annexin V-PI detection kit (Immunotech/Beckman Coulter, Fullerton, Calif.), containing 1 μL, annexin V-fluorescein isothiocyanate (FITC) stock and 5 μL 20 μg/mL […] (PI) to determinate the phosphatidylserine (PS) exposure on the outer plasma membrane. After incubation for 15 minutes at room temperature in the dark, the specimens were quantified by dual-color flow cytometry, acquiring 10,000 events. Cells that were Annexin V-FITC+(with translocation of phosphatidylserine from the inner to the outer leaflet of the plasma membrane) and PI− (with intact cellular membrane) were considered as early apoptotic cells.
Apoptosis induction in control (DMSO-treated) or inhibitor treated cells was determined using an Annexin-V-FLUOS Staining Kit according to the manufacturer's instructions (Roche, Indianapolis, Ind.). Briefly, cells (1×10^5) were harvested at indicated time points after treatment, and Annexin V-fluorescein isothiocyanate (FITC) and propidium iodide (PI) were added to individual samples and incubated for 30 min in a dark environment. Fluorescence was analyzed by a FACSort flow cytometer (BD Biosciences, San Jose, Calif.) by acquiring 10,000 events per sample.

[3] = read-out: IC50 (reduction of % viable cells), single agent, NCI-H929, 40 h exposure, MTS assay, agent alone

Row | SMILES | IC50 (NCI-H929 [1]; Homo sapiens, NCI-H929, 40 h, read-out: IC50 (reduction of % viable cells), single agent, NCI-H929, 40 h exposure, MTS assay, agent alone) [nM] | IC50 (NCI-H929 [1]; Homo sapiens, NCI-H929, 40 h, read-out: IC50 of MG-132 in the presence of MAL3-101, NCI-H929, 40 h, MTS, MAL3-101 and MG-132 at equal concentrations) [nM] | IC50 (NCI-H929 [1]; [3]) [nM] | induction of apoptosis at 18 h (NCI-H929 [2]) | cytotoxicity compared among MM cell lines (NCI-H929 [1]; 10 μM, NCI-H929 versus RPMI-8226 and U266) | IC50 (NCI-H929 [1]; read-out: IC50 as stated in the detailed description, multiple myeloma cells, rounded statement of the description) [nM] | apoptosis over time (NCI-H929 [2]; NCI-H929, 10 μM, FACS)
1 | CC(C)C[C@@H](C=O)NC(=O)[C@H](CC(C)C)NC(=O)[C@H](CC(C)C)NC(=O)OCc1ccccc1 [MG-132, reference compound] (Cbz-Leu-Leu-Leu-aldehyde) | 1000 | 10 | 1700 | neither drug alone was effective in inducing apoptosis |  |  | 
2 | CCCCCCN(C(=O)CCCCCN1C(=O)NC(c2ccc(-c3ccccc3)cc2)C(C(=O)OCc2ccccc2)=C1C)C(C(=O)NCCCC)c1ccc(OCC(=O)OC)c(C(=O)OC)c1 (stereo not drawn) [MAL3-101] |  |  | 8300 | neither drug alone was effective in inducing apoptosis | most sensitive; also recorded: highest level of cytotoxicity | 10000 | time-dependent increase in apoptosis
